Marks after values point to notes of the source that are not given here.
How the values were obtained:
[1] = tested on: ICR mice; experiment: in vivo; conditions: female ICR mice; single-dose ip
Procedure: This experiment was to investigate the toxic effects of single-dose intraperitoneal administration on ICR mice and determine the maximum tolerated dose (MTD) of each subject. Maximum tolerated dose (MTD) refers to the dose that may not cause an animal to die, may not cause the animal to suffer weight loss exceeding 10% (compared with Day 0), or may not produce significant side effects.
(§1) The corresponding amount of test substance was taken in a 5 mL glass tube and dissolved in ethanol with a 5 mm magnetic stirrer for stirring. After dissolving completely, Cremophor EL was added with continuous stirring. The marked amount of saline was added and mixed evenly before use. The volume ratio of ethanol, Cremophor EL, and physiological saline was 5:5:90.
Varieties and lines: ICR mice; level: SPF; sex: female.
Method of administration: ip. The dose was reduced in case of animal death, till an animal survived; the dose was increased in case of no animal death; the test was ended when the animals survived normally at the given high dose. Finally, the MTD of the mice on the test substances was determined according to the test results. The animals were observed continuously for 7 days after acute administration.
During the experiment, all animals were under detailed and continuous clinical observation for […], twice a day (10:00 am, 16:00 pm) after administration. The observation included but not limited to: skin, hair, ear, nose, mouth, chest, abdomen, external genitalia, limbs and feet, respiratory and circulatory system, autonomic effects (such as salivation), nervous system (such as tremor, convulsions, stress response and abnormal behavior).
The body of animals was weighed before administration, and then weighed and recorded at the same time each day.
The observation results, animal body weight, and animal survival after one week of administration were recorded in detail every day.

[2] = tested on: HCT-116 colon cancer xenografts; experiment: Tumor growth inhibition of HCT-116 colon cancer xenografts in tumor-bearing nude mice (tumor volume, TGI %, RTV, T/C %); assay type: in vivo, Balb/c Nude mice
Procedure: 4.1 Tumor cells: colon cancer HCT-116 cells, purchased from the Institute of Cell Biology, Chinese Academy of Sciences. The cells were incubated by F-12 medium (containing 10% FBS) in carbon dioxide incubator at 37° C. and in saturated humidity, with 5% CO2 and 95% air in volume fraction. Before inoculation, the cells at logarithmic phase were taken, and digested with 0.25% trypsin, washed once with PBS and resuspended in PBS for counting. The cells were resuspended in serum-free medium and adjusted to about 3×10^7 cell/mL.
The grouping is as follows:
The formations of tumor at the inoculation site of each group of nude mice were observed. The diameter of tumor nodule (D) was measured three times a week with round hole ruler, and the volume of tumor nodule (V) was calculated according to the following formula: […].
Anti-tumor activity was evaluated by tumor growth inhibition rate TGI (%) and relative tumor proliferation rate T/C (%).
The relative tumor volume (RTV) was calculated as: RTV=Vt/V0, where V0 was the tumor volume when they were grouped and administered, and Vt was the tumor volume at the time of measurement.
The relative proliferation rate T/C (%) was calculated as: […].
TRTV: RTV of the treatment group; CRTV: RTV of the control group.
P<0.05 was considered as significant difference.

[3] = Procedure: To determine the growth inhibition effect and toxicity of the cytidine derivative samples of the present invention on the transplanted tumor of nude mice bearing colon cancer HCT-116.
as §1
Varieties and lines; Balb/c Nude mice; level: SPF; sex: female.
4.2 Animal inoculation and grouping: Each nude mouse was inoculated subcutaneously with 0.1 mL of cell suspension (3×10^6 cell/mouse) at right side of hind limb in a sterile stale. When the tumor grew to about 60-150 mm^3, the nude mice with similar tumor volume and desirable shape were selected (it would be better to select single spherical shape, no irregular shape or multiple tumors grouped together) for grouping, 6 mice a group. The grouping is as follows:
The control group, namely the model control group, was injected with a mixture of ethanol, Cremophor EL, and saline (5:5:90).
Those mice were weighed three times a week.
All clinical symptoms of each animal should be recorded at the beginning of the test and during the test. The observations should be made at the same time each day.
An animal would be killed by CO2 when its weight loss was more than 20%, when it was about to die, or when its tumor volume exceeded 2800 mm^3. The tumor was separated and weighed, and the animal was autopsied and observed to evaluate and record whether there were pathological changes in the organs.
The data were expressed as Mean±SEM unless specially provided; Non-pairing T test was performed for the data between the two groups. P<0.05 was considered as significant difference.

[4] = Day 0, G3-G9 groups, single IP dose, Mean±SEM
[5] = Day 4, G3-G9 groups, single IP dose, Mean±SEM
[6] = Day 6, G3-G9 groups, single IP dose, Mean±SEM
[7] = Day 8, G3-G9 groups, single IP dose, Mean±SEM
[8] = Day 11, G3-G9 groups, single IP dose, Mean±SEM
[9] = Day 13, G3-G9 groups, single IP dose, Mean±SEM
[10] = Day 15, G3-G9 groups, single IP dose, Mean±SEM
[11] = Day 18, G3-G9 groups, single IP dose, Mean±SEM
[12] = Day 20, G3-G9 groups, single IP dose, Mean±SEM
[13] = Day 22, G3-G9 groups, single IP dose, Mean±SEM

O=C(Nc1ccn([C@@H]2O[C@H](CO)[C@@H](O)C2(F)F)c(=O)n1)OCc1ccccc1 [Compound G4, 4-N-(carboxybenzyl)-2′-deoxy-2′,2′-difluorocytidine]
dose that could be tolerated (maximum tolerated dose, MTD) [1]: 350 mg/kg
Day 0 (RTV) [2, 4]: 1.00 ± 0.00
Tumor volume, Day 0 [2, 4]: 63.44 ± 18.74** mm^3
Day 4 (TGI %) ([2]; Day 4, G3-G9 groups, single IP dose): 83.29%
Day 4 (RTV) [2, 5]: 0.70 ± 0.13
Tumor volume, Day 4 [2, 5]: 44.53 ± 13.75** mm^3
Day 6 (TGI %) ([2]; Day 6, G3-G9 groups, single IP dose): 89.82%
Day 6 (RTV) [2, 6]: 0.68 ± 0.10
Tumor volume, Day 6 [2, 6]: 43.04 ± 10.69** mm^3
Day 8 (TGI %) ([2]; Day 8, G3-G9 groups, single IP dose): 91.66%
Day 8 (RTV) [2, 7]: 0.69 ± 0.13
Tumor volume, Day 8 [2, 7]: 43.83 ± 12.73** mm^3
tumor inhibition effect ([2]; Day 8 to Day 13 after single-dose intraperitoneal administration): good tumor inhibition effect
Day 11 (TGI %) ([2]; Day 11, G3-G9 groups, single IP dose): 92.58%
Day 11 (RTV) [2, 8]: 1.12 ± 0.29
Tumor volume, Day 11 [2, 8]: 59.68 ± 11.72** mm^3
Day 13 (TGI %) ([2]; Day 13, G3-G9 groups, single IP dose): 92.57%
Day 13 (RTV) [2, 9]: 1.51 ± 0.39
Tumor volume, Day 13 [2, 9]: 86.22 ± 24.86** mm^3
Day 15 (TGI %) ([2]; Day 15, G3-G9 groups, single IP dose): 90.04%
Day 15 (RTV) [2, 10]: 2.80 ± 0.97
Tumor volume, Day 15 [2, 10]: 140.70 ± 34.22** mm^3
Day 18 (TGI %) ([2]; Day 18, G3-G9 groups, single IP dose): 85.93%
Day 18 (RTV) [2, 11]: 5.36 ± 1.82
Tumor volume, Day 18 [2, 11]: 260.52 ± 51.15** mm^3
Day 20 (TGI %) ([2]; Day 20, G3-G9 groups, single IP dose): 78.95%
Day 20 (RTV) [2, 12]: 9.65 ± 3.23
Tumor volume, Day 20 [2, 12]: 446.16 ± 65.85** mm^3
Day 22 (TGI %) ([2]; Day 22, G3-G9 groups, single IP dose): 75.68%
Day 22 (RTV) [2, 13]: 14.66 ± 5.30
Tumor volume, Day 22 [2, 13]: 636.07 ± 78.89** mm^3
T/C % on Day 22 ([2]; Day 22, G4 350 mg/kg, G5 325 mg/kg, G7 250 mg/kg, single IP): 75.38%
relative tumor volume compared with the model control group ([2]; G4 and G5 Day 4 to Day 18, G7 Day 4 to Day 15 (p<0.05-0.01), G9 only Day 4 (p<0.05)): reduced significantly
maximum value of TGI % ([2]; day of maximum: G3 Day 8, G4 Day 11, G5 Day 11, G9 Day 4, G7 Day 8, single IP): 92.58%
minimum value of T/C % ([2]; day of minimum: G4 Day 13, G5 Day 11, G7 Day 8, single IP): 17.62%
Weight change rate, Day 0 [3, 4]: 0.00 ± 0.00%
Weight of mice, Day 0 [3, 4]: 20.20 ± 0.55 g
weights of animals on Day 4 after administration ([3]; Day 4 (G7: Day 4 and Day 6), p<0.05): significantly reduced
Weight change rate, Day 4 [3, 5]: −10.91 ± 3.45 %
Weight of mice, Day 4 [3, 5]: 18.22 ± 1.19 g
weight loss rate on Day 4 after administration ([3]; Day 4, G4 350 mg/kg, G5 325 mg/kg, G7 250 mg/kg, single IP): 10.91±3.45%
animals died on Day 4 after administration ([3]; Day 4, G4 350 mg/kg, G8 350 mg/kg, G6 300 mg/kg, single IP, 6 mice a group): 1
Weight change rate, Day 6 [3, 6]: −1.87 ± 2.96%
Weight of mice, Day 6 [3, 6]: 20.06 ± 1.18 g
Weight change rate, Day 8 [3, 7]: 0.30 ± 1.84%
Weight of mice, Day 8 [3, 7]: 20.48 ± 0.97 g
Weight change rate, Day 11 [3, 8]: 3.85 ± 5.08%
Weight of mice, Day 11 [3, 8]: 21.08 ± 0.76 g
Weight change rate, Day 13 [3, 9]: 7.64 ± 4.55%
Weight of mice, Day 13 [3, 9]: 21.86 ± 0.67 g
Weight change rate, Day 15 [3, 10]: 8.84 ± 4.33%
Weight of mice, Day 15 [3, 10]: 22.10 ± 0.57 g
Weight change rate, Day 18 [3, 11]: 9.28 ± 3.53 %
Weight of mice, Day 18 [3, 11]: 22.20 ± 0.43 g
Weight change rate, Day 20 [3, 12]: 10.50 ± 4.03 %
Weight of mice, Day 20 [3, 12]: 22.44 ± 0.49 g
Weight change rate, Day 22 [3, 13]: 11.39 ± 4.05%
Weight of mice, Day 22 [3, 13]: 22.62 ± 0.49 g
Day 22 Mortality ([3]; Day 22, single IP dose (mg/kg)): 17%
body weight compared with model control group ([3]; G4 Day 18 to Day 20 (p<0.05), G5 Day 13 to Day 20 (p<0.05~0.01)): significantly increased
clinical symptoms ([3]; after single IP dose, compared with model control group): 3 animals had less activity, loss of body weight, and body surface temperature lower than normal

Reference: patent publication US10174067B2, “Type of cytidine derivative and application thereof” (priority 2014, dated 2019)
